Where a name gives a salt, the structure may show the parent alone.
Experiments:
[1] = system: 18C-18R duplex (RNase H substrate of HIV-1 RT); experiment: RT-induced RNase H cleavage of the 18C-18R duplex (gel assay); assay type: biochemical; settings: 18C-18R duplex; aminoglycosides 312.5 μM; FIG. 1b, 1d
From the text: The first model oligonucleotide was a 18mer chimeric duplex (18C-18R). 18C-18R mimics a RNase H substrate during minus-strand strong-stop synthesis. (FIG. 1a). Mueller, U. et al. Crystal structure of an eight-base pair duplex containing the 3′-DNA RNA-5′ junction formed during initiation of minus-strand synthesis of HIV replication, Biochemistry 37,12005-12011 (1998). […] Note that RT cleaves the RNA strand (18R) opposite the chimeric RNA-DNA strand (18C) at three sites (FIGS. 1a, b). The primary cleavage site lies between base positions +1 and +2 (counting from the RNA-DNA junction in the 5′ direction on the cleaved RNA strand). Two other minor cleavage sites lie between positions +3 and +4 and between positions −1 and +1, with the former site being cleaved to a greater extent than the latter site. Götte, M. et al., HIV-1 Reverse transcriptase-associated RNase H cleaves RNA/RNA in arrested complexes: Implications for the mechanism by which RNase H discriminates between RNA/RNA and RNA/DNA, EMBO J. 14, 833-841 (1995).
(§1) Recombinant HIV-1 RT p66 was isolated from Escherichia coli JM 109. Pandey, V. N. et al, Role of methionine 184 of human immunodeficiency virus type-1 reverse transcriptase in the polymerase function and fidelity of DNA synthesis, Biochemistry 35, 2168-2179 (1996). The 18C and 18R oligonucleotides were purchased from Dharmacon Research, Inc. (Lafayette, Colo.). The 18D oligonucleotide was obtained from Integrated DNA Technologies, Inc. (Coralville, Iowa). Neomycin trisulfate trihydrate, the free base of tobramycin, paromomycin sulfate, and kanamycin B sulfate were obtained from Fluka, while kanamycin A monosulfate and ribostamycin sulfate dihydrate were obtained from Sigma.
(§2) The RNase H activity of RT was assayed in a 10 μl reaction mixture containing 10 mM PIPES (pH 6.0) and 5 mM MgCl2. Ten pmol of either 18C or 18R were ^32P-labeled at the 5′ end using T4 polynucleotide kinase. For the cleavage experiments, different aminoglycosides were mixed with 0.5 μM of target duplex. A small amount of RT, 0.1 μg, was then added to initiate the cleavage reaction. After incubation at 37° C. for 30 min, the reaction was stopped by addition of 3 M urea containing a mixture of bromophenol blue and xylene cyanol. Denaturation of the 18C-18R duplex required the addition of 5 M urea as well as heating at 95° C. for 5 min prior to gel loading. The cleavage products were resolved in a 10% polyacrylamide gel containing 8 M urea. The gels were subsequently analyzed using a phosphoimager (Molecular Dynamics, Inc.).

[2] = system: 18C-18D duplex (RNase H substrate of HIV-1 RT); experiment: RT-induced RNase H cleavage of the 18C-18D duplex (gel assay); assay type: biochemical; settings: 18C-18D duplex; aminoglycosides 2.0 mM; FIG. 2b, 2c
From the text: The second model oligonucleotide was a 18mer chimeric duplex (18C-18D). 18C-18D mimics a RNase H substrate during plus-strand strong-stop synthesis (FIG. 2a), which occurs following minus-strand DNA synthesis. Fedoroff, O. Y., et. al., B. R. Structural variation among retroviral primer-DNA junctions: Solution structure of the HIV-1 (−)-strand Okazaki fragment r(gcca)d(CTGC)-d(GCAGTGGC), Biochemistry 35,11070-11080 (1996). For the 18C-18D duplex, RT cleaves the RNA portion of the chimeric strand (18C) opposite the DNA strand (18D) at only a single site (FIGS. 2a, b), in marked contrast to the three cleavage sites observed in the 18C-18Rduplex. This unique cleavage site lies between base positions +1 and +2 (counting from the RNA-DNA junction in the 5′ direction on the cleaved chimeric strand). Furfine, E. S. & Reardon, J. E., Human immunodeficiency virus reverse transcriptase ribonuclease H: Specificity of tRNA(Lys3)-primer excision, Biochemistry 30, 7041-7046 (1991); Smith, J. S. & Roth, M. J. Specificity of human immunodeficiency virus-1 reverse transcriptase-associated ribonuclease H in removal of the minus-strand primer tRNA(Lys3), J. Biol. Chem. 267, 15071-15079 (1992). […] As noted above for the 18C-18R duplex, this hierarchy of cleavage inhibition correlates with the relative binding affinities of the three ligands for the 18C-18D duplex.
as §1
as §2, with “containing 110” for “containing 10”
To determine the nature of the aminoglycoside-induced inhibition of RT-catalyzed RNase H cleavage, the impact of RT concentration on neomycin-induced inhibition was examined. […] In the presence of 1 mM neomycin, increasing the concentrations of RT overcomes the RNase H inhibitory effect of the drug.

SMILES | hierarchy of the extent of inhibition of RT-induced cleavage [1] | hierarchy of inhibition of RT-induced cleavage [2]
NC[C@H]1O[C@H](O[C@H]2[C@H](O)[C@@H](O[C@H]3O[C@H](CO)[C@@H](O)[C@H](N)[C@H]3O)[C@H](N)C[C@@H]2N)[C@H](N)C[C@@H]1O [tobramycin] | neomycin>paromomycin>tobramycin>kanamycin B>ribostamycin>>kanamycin A | 
NC[C@H]1O[C@H](O[C@H]2[C@H](O[C@@H]3O[C@H](CO)[C@@H](O)[C@H]3O)[C@@H](O)[C@H](N)C[C@@H]2N)[C@H](N)[C@@H](O)[C@@H]1O [ribostamycin, ribostamycin sulfate dihydrate] | neomycin>paromomycin>tobramycin>kanamycin B>ribostamycin>>kanamycin A | neomycin>paromomycin>ribostamycin
NC[C@H]1O[C@H](O[C@H]2[C@H](O)[C@@H](O[C@H]3O[C@H](CO)[C@@H](O)[C@H](N)[C@H]3O)[C@H](N)C[C@@H]2N)[C@H](N)[C@@H](O)[C@@H]1O.O=S(=O)(O)O [kanamycin B, kanamycin B sulfate] | neomycin>paromomycin>tobramycin>kanamycin B>ribostamycin>>kanamycin A | 
NC[C@H]1O[C@H](O[C@H]2[C@H](O)[C@@H](O[C@H]3O[C@H](CO)[C@@H](O)[C@H](N)[C@H]3O)[C@H](N)C[C@@H]2N)[C@H](O)[C@@H](O)[C@@H]1O.O=S(=O)(O)O [kanamycin A, kanamycin A monosulfate] | neomycin>paromomycin>tobramycin>kanamycin B>ribostamycin>>kanamycin A | 

Reference: US20030069194A1, “Inhibition of viral replication by targeting RNA-DNA complexes” (priority 2001, published 2003)
